Results as given in patent US20050148627A1, “Benzopyran compounds for use in the treatment and prevention of inflammation related conditions” (priority 2003, published 2005).
pIC50: −log10 of the molar value. “And” between values parts separate entries of the source, which are not always exact repeats. Identical values can stand only once.

Target: COX-1 (Homo sapiens, UniProt P23219)
Assay: biochemical

Sequence of COX-1 (P23219 24-599): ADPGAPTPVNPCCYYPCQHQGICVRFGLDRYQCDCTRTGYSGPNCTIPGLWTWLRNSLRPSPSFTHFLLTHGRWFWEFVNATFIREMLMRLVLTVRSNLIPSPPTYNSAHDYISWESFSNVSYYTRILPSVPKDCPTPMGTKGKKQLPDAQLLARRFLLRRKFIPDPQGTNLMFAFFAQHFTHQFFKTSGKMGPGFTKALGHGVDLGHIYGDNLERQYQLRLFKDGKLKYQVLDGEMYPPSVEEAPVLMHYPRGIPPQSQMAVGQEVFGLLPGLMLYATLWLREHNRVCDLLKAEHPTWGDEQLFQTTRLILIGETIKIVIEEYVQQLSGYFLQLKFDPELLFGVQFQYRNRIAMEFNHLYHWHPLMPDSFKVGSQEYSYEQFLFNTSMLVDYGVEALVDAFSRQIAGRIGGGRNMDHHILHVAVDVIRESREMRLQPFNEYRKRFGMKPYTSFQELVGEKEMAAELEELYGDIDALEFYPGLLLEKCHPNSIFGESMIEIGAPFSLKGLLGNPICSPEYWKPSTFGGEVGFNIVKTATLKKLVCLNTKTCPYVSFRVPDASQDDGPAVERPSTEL

pIC50 | Structure (SMILES)
5.25 and 4.99 | Cc1ccc(Cc2cc3c(cc2Cl)C=C(C(=O)O)C(C(F)(F)F)O3)cc1 (stereo not shown) [Example 9x, 6-chloro-7-(4-methylbenzyl)-2-(trifluoromethyl)-2H-chromene-3-carboxylic acid]
5.41 | NS(=O)(=O)c1ccc(C#Cc2cc(Cl)cc3c2OC(C(F)(F)F)C(C(=O)O)=C3)cc1 (stereo not shown) [Example 39b, 8-{[4-(aminosulfonyl)phenyl]ethynyl}-6-chloro-2-(trifluoromethyl)-2H-chromene-3-carboxylic acid]
4.00 and 3.72 | CC1CCCN(c2cc3c(cc2Cl)C=C(C(=O)O)C(C(F)(F)F)O3)C1 (stereo not shown) [Example 8b, 6-chloro-7-(3-methylpiperidin-1-yl)-2-(trifluoromethyl)-2H-chromene-3-carboxylic acid]
4.93 | CCCOc1cc(Cl)c2c(c1)C=C(C(=O)O)C(C(F)(F)F)O2 (stereo not shown) [Example 17f, 8-chloro-6-propoxy-2-(trifluoromethyl)-2H-chromene-3-carboxylic acid]
6.27 and 6.84 | O=C(O)C1=Cc2cc(Cl)c(OCC3CCCC3)c(Cl)c2OC1C(F)(F)F (stereo not shown) [Example 1c, 6,8-dichloro-7-(cyclopentylmethoxy)-2-(trifluoromethyl)-2H-chromene-3-carboxylic acid]
< 4.00 | CCCc1cc2c(cc1Cc1ccccc1)OC(C(F)(F)F)C(C(=O)O)=C2 (stereo not shown) [Example 42c, 7-benzyl-6-propyl-2-(trifluoromethyl)-2H-chromene-3-carboxylic acid]
3.71 and < 4.00 | COc1c(Cl)c(Cl)c(Br)c2c1OC(C(F)(F)F)C(C(=O)O)=C2 (stereo not shown) [Example 30, 5-bromo-6,7-dichloro-8-methoxy-2-(trifluoromethyl)-2H-chromene-3-carboxylic acid]
< 4.00 | CC(C)(C(=O)O)c1cc2c(cc1Cl)C=C(C(=O)O)C(C(F)(F)F)O2 (stereo not shown) [Example 115, 7-(1-carboxy-1-methylethyl)-6-chloro-2-(trifluoromethyl)-2H-chromene-3-carboxylic acid]
5.52 and 5.62 | O=C(O)C1=Cc2cc(Cl)c(Cc3ccccc3)cc2O[C@H]1C(F)(F)F (single isomer, unassigned) [Example 9l]
5.08 and 5.22 and 4.36 and 4.73 | Cc1cc(C)c2c(c1Cl)C=C(C(=O)O)C(C(F)(F)F)O2 (stereo not shown) [Example 33, 5-chloro-6,8-dimethyl-2-(trifluoromethyl)-2H-chromene-3-carboxylic acid]
< 4.00 | O=C(O)C1=Cc2ccc(C(=O)c3cccnc3)cc2OC1C(F)(F)F (stereo not shown) [Example 11, 7-(pyridin-3-ylcarbonyl)-2-(trifluoromethyl)-2H-chromene-3-carboxylic acid]
< 4.00 and 3.77 | CCCC(C)(C)c1ccc2c(c1)OC(C(F)(F)F)C(C(=O)O)=C2 (stereo not shown) [Example 108, 7-(1,1-dimethylbutyl)-2-(trifluoromethyl)-2H-chromene-3-carboxylic acid]
4.16 | C=C(c1ccccc1)c1ccc2c(c1)OC(C(F)(F)F)C(C(=O)O)=C2 (stereo not shown) [Example 37a, 7-(1-phenylvinyl)-2-(trifluoromethyl)-2H-chromene-3-carboxylic acid]
4.36 and 4.38 | CCCOc1c(Cl)c(Cl)c(Cl)c2c1OC(C(F)(F)F)C(C(=O)O)=C2 (stereo not shown) [Example 28a, 5,6,7-trichloro-8-propoxy-2-(trifluoromethyl)-2H-chromene-3-carboxylic acid]
5.04 | CCCC(C)(C)c1cc2c(cc1Cl)C=C(C(=O)O)C(C(F)(F)F)O2 (stereo not shown) [Example 111, 6-chloro-7-(1,1-dimethylbutyl)-2-(trifluoromethyl)-2H-chromene-3-carboxylic acid]
6.37 | O=C(O)C1=Cc2cc(Cl)c(Cc3ccccc3Cl)cc2OC1C(F)(F)F (stereo not shown) [Example 9n, 6-chloro-7-(2-chlorobenzyl)-2-(trifluoromethyl)-2H-chromene-3-carboxylic acid]
< 4.00 | COCCOc1ccc2c(c1)OC(C(F)(F)F)C(C(=O)O)=C2 (stereo not shown) [Example 5e, 7-(2-methoxyethoxy)-2-(trifluoromethyl)-2H-chromene-3-carboxylic acid]
< 4.00 | O=C(O)COc1ccc2c(c1)OC(C(F)(F)F)C(C(=O)O)=C2 (stereo not shown) [Example 5g, 7-(carboxymethoxy)-2-(trifluoromethyl)-2H-chromene-3-carboxylic acid]
5.01 and 4.92 | O=C(O)C1=Cc2cc(Cl)c(Cc3ccc(Cl)cc3)cc2OC1C(F)(F)F (stereo not shown) [Example 9o, 6-chloro-7-(4-chlorobenzyl)-2-(trifluoromethyl)-2H-chromene-3-carboxylic]
< 4.00 and 4.24 | CC1CC(C)CN(c2cc3c(cc2Cl)C=C(C(=O)O)C(C(F)(F)F)O3)C1 (stereo not shown) [Example 8a, 6-chloro-7-(3,5-dimethylpiperidin-1-yl)-2-(trifluoromethyl)-2H-chromene-3-carboxylic acid]
< 4.00 | CC(c1ccccc1)c1ccc2c(c1)OC(C(F)(F)F)C(C(=O)O)=C2 (stereo not shown) [Example 37b, 7-(1-phenylethyl)-2-(trifluoromethyl)-2H-chromene-3-carboxylic acid]
4.43 | O=C(O)C1=Cc2ccc(Cc3ccc(F)cc3)cc2OC1C(F)(F)F (stereo not shown) [Example 9bb, 7-(4-fluorobenzyl)-2-(trifluoromethyl)-2H-chromene-3-carboxylic acid]

pIC50 | Structure (SMILES)
4.79 and 4.88 | CCCCC(C)(C)c1cc2c(cc1Cl)C=C(C(=O)O)C(C(F)(F)F)O2 (stereo not shown) [Example 110, 6-chloro-7-(1,1-dimethylpentyl)-2-(trifluoromethyl)-2H-chromene-3-carboxylic acid]
4.68 | O=C(O)C1=Cc2cc(Cl)c(OCc3ccccc3)c(Cl)c2OC1C(F)(F)F (stereo not shown) [Example 1g, 7-(benzyloxy)-6,8-dichloro-2-(trifluoromethyl)-2H-chromene-3-carboxylic acid]
6.38 and > 6.86 | CCCCC(C)(C)c1ccc2c(c1)OC(C(F)(F)F)C(C(=O)O)=C2 (stereo not shown) [Example 109, 7-(1,1-dimethylpentyl)-2-(trifluoromethyl)-2H-chromene-3-carboxylic acid]
4.08 | CCCCc1cc(OC(F)(F)F)cc2c1OC(C(F)(F)F)C(C(=O)O)=C2 (stereo not shown) [Example 21r, 8-butyl-6-(trifluoromethoxy)-2-(trifluoromethyl)-2H-chromene-3-carboxylic acid]
< 6.00 and 4.59 and 4.91 | O=C(O)C1=Cc2cc(Cl)c(I)c(Cl)c2OC1C(F)(F)F (stereo not shown) [Example 22, 6,8-dichloro-7-iodo-2-(trifluoromethyl)-2H-chromene-3-carboxylic acid]
< 4.00 | CC(C)CCSc1cc2c(cc1Cl)C=C(C(=O)O)C(C(F)(F)F)O2 (stereo not shown) [Example 7b, 6-chloro-7-(isopentylthio)-2-(trifluoromethyl)-2H-chromene-3-carboxylic acid]
4.84 and 4.89 | O=C(O)C1=Cc2cc(Br)c(Cc3ccccc3)cc2OC1C(F)(F)F (stereo not shown) [Example 41, 7-benzyl-6-bromo-2-(trifluoromethyl)-2H-chromene-3-carboxylic acid]
< 4.00 and 3.58 and 3.70 | O=C(O)C1=Cc2ccc(Oc3ccc([N+](=O)[O-])cc3F)cc2OC1C(F)(F)F (stereo not shown) [Example 5a, 7-(2-fluoro-4-nitrophenoxy)-2-(trifluoromethyl)-2H-chromene-3-carboxylic acid]
< 4.00 | CC(C)(C#N)c1cc2c(cc1Cl)C=C(C(=O)O)C(C(F)(F)F)O2 (stereo not shown) [Example 118, 6-chloro-7-(1-cyano-1-methylethyl)-2-(trifluoromethyl)-2H-chromene-3-carboxylic acid]
4.09 and 4.44 | COc1cc(Cl)c2c(c1)C=C(C(=O)O)[C@@H](C(F)(F)F)O2 (single isomer, unassigned) [Example 17i]
5.38 and 5.55 | O=C(O)C1=Cc2c(cc(Cc3ccccc3)c(Cl)c2Cl)OC1C(F)(F)F (stereo not shown) [Example 13, 7-benzyl-5,6-dichloro-2-(trifluoromethyl)-2H-chromene-3-carboxylic acid]
4.49 and 5.14 and 5.19 and 5.09 and 4.74 | Cc1cc(Cl)cc2c1O[C@H](C(F)(F)F)C(C(=O)O)=C2 (single isomer, unassigned) [Example 21t]
< 4.00 and 3.34 | O=C(O)C1=Cc2cc(O)cc(Cl)c2OC1C(F)(F)F (stereo not shown) [Example 17b, 8-chloro-6-hydroxy-2-(trifluoromethyl)-2H-chromene-3-carboxylic acid]
< 4.00 | COc1cc(Cl)c2c(c1)C=C(C(=O)O)[C@H](C(F)(F)F)O2 (single isomer, unassigned) [Example 17h]
4.35 | O=C(O)C1=Cc2cc(Cl)c(OCC3CCCC3)cc2OC1C(F)(F)F (stereo not shown) [Example 2d, 6-chloro-7-(cyclopentylmethoxy)-2-(trifluoromethyl)-2H-chromene-3-carboxylic acid]
< 4.00 | Cc1cc(Cl)cc2c1O[C@@H](C(F)(F)F)C(C(=O)O)=C2 (single isomer, unassigned) [Example 21u]
< 4.00 | CCCC(=O)NCc1cc2c(cc1Cl)C=C(C(=O)O)C(C(F)(F)F)O2 (stereo not shown) [Example 16, 7-[(butyrylamino)methyl]-6-chloro-2-(trifluoromethyl)-2H-chromene-3-carboxylic acid]
5.19 and 5.51 | CCCC#Cc1cc(OC(F)(F)F)cc2c1OC(C(F)(F)F)C(C(=O)O)=C2 (stereo not shown) [Example 21e, 8-pent-1-ynyl-6-(trifluoromethoxy)-2-(trifluoromethyl)-2H-chromene-3-carboxylic acid]
< 3.30 | O=C(O)C1=Cc2cccc(Oc3ccc([N+](=O)[O-])cc3F)c2OC1C(F)(F)F (stereo not shown) [Example 25a, 8-(2-fluoro-4-nitrophenoxy)-2-(trifluoromethyl)-2H-chromene-3-carboxylic acid]
4.63 and 4.57 and 5.03 and 4.96 | CCc1cc(OC(F)(F)F)cc2c1O[C@H](C(F)(F)F)C(C(=O)O)=C2 (single isomer, unassigned) [Example 21k]
< 4.00 and 3.66 | COc1c(Cl)c(Cl)c(C)c2c1OC(C(F)(F)F)C(C(=O)O)=C2 (stereo not shown) [Example 29, 6,7-dichloro-8-methoxy-5-methyl-2-(trifluoromethyl)-2H-chromene-3-carboxylic acid]

Structure (SMILES) | pIC50
Cc1c(OCC(C)C)c(Cl)cc2c1OC(C(F)(F)F)C(C(=O)O)=C2 (stereo not shown) [Example 3e, 6-chloro-7-isobutoxy-8-methyl-2-(trifluoromethyl)-2H-chromene-3-carboxylic acid] | > 6.86
CCCCOc1c(Cl)cc2c(c1C)OC(C(F)(F)F)C(C(=O)O)=C2 (stereo not shown) [Example 3f, 7-butoxy-6-chloro-8-methyl-2-(trifluoromethyl)-2H-chromene-3-carboxylic acid] | 5.15 and 5.02 and 5.04
CCC(CC)COc1ccc(Cl)c2c1OC(C(F)(F)F)C(C(=O)O)=C2 (stereo not shown) [Example 23b, 5-chloro-8-(2-ethylbutoxy)-2-(trifluoromethyl)-2H-chromene-3-carboxylic acid] | 3.80 and < 4.00
